Laboratory results taken from US8119681B2, “2-[1-phenyl-5-hydroxy or methoxy-4alpha-methyl-hexahydrocyclopenta [ƒ]indazole-5-YL]ethyl phenyl derivatives as glucocorticoid receptor ligands” (Merck Sharp & Dohme Corp., priority 2006, dated 2012).
Read-outs that look alike come from different tables or passages of the source.

Target: T1, human GR (Homo sapiens, UniProt P04150)
T1 sequence (P04150 1-777): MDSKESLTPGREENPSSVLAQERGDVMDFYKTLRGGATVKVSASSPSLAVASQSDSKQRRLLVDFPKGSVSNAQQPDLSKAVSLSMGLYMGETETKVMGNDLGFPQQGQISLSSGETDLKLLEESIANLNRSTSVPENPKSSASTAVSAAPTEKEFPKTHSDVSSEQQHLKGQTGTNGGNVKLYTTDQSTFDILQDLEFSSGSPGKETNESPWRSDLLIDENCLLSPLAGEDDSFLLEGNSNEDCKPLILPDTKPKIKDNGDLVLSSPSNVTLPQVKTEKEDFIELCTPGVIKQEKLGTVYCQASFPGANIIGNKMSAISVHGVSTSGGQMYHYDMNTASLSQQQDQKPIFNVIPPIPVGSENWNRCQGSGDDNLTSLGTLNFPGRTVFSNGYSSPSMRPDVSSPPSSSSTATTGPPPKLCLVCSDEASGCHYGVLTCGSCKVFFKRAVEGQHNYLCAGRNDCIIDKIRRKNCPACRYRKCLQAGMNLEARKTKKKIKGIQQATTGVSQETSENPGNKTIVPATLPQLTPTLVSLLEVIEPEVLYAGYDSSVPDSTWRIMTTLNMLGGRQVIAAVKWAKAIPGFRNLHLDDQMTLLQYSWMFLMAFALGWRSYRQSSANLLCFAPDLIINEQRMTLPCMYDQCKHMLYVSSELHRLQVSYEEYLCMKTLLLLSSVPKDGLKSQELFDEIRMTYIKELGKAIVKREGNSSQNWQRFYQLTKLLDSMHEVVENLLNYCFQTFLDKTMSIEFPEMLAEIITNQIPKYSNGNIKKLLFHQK
Assay: Transrepression Assay (GITAR), TNFα-β-lactamase reporter gene in U937 cells
Type: cell-based
Set-up: U937 cells contain an endogenous glucocorticoid receptor (GR); endogenous in cells; host or cells: U937 cells stably transfected with the TNF-α promoter/β-lactamase reporter only
Description: Transrepression Assay (GITAR)
This assay assesses the ability of test compounds to control transcription from the TNFα-β-lactamase reporter gene in U937 cells, a human myelomonocytic leukemia cell line that naturally expresses the human GR. The assay measures compound dependent-repression of the TNFa promoter linked to a reporter gene.
The human U937 cells that had been stably transfected with the TNF-α promoter driving β-lactamase are used for this assay. U937 cells contain an endogenous glucocorticoid receptor (GR). […] 50,000 cells/well are plated in 96 well black-walled plates the day of assay. Test compounds are added 10 μL/well, and cells are incubated at 37° C. for 30˜45 min. For assaying compounds, first dilute 1:10 in DMSO to make 1 mM, then further dilute 1:100 in medium to make 10× stock prior to adding to the cells. Add 50 ng/ml PMA (Sigma, cat# P8139) 10 μL/well to a final concentration 5 ng/ml, and 1 μg/ml LPS (Sigma, cat# L4130) 10 μL/well to a final concentration 100 ng/ml. Incubate cells at 370 C overnight for ˜18 hr. PMA is stored frozen as 100 μg/ml stock in DMSO. Dilute 1:10 in DMSO for a working stock of 10 μg/ml and store at −20 C. For assaying, dilute the 10 μg/ml working stock 1:200 in medium to make a 10× solution (50 ng/ml). Store frozen LPS at 1 mg/ml in PBS, dilute 1:1000 in medium to make 10× (1 μg/ml) for the assay. Add 6× loading buffer (CCF2-AM) 20 μL/well, and incubate at room temperature for 70˜90 min. […] The activity repressed by 100 nM dexamethasone alone is set as 100% activity.

[1] = U-937, 100 nM dexamethasone = 100% activity, read-out: maximal activity in the transrepression assay

Emax [1] [%]	Structure (SMILES)	Emax (U-937, read-out: maximal activity in the transrepression assay) [%]
5 to 100	CC(C)(C)CNC(=O)c1ccccc1CC[C@]1(O)CCC2=Cc3c(cnn3-c3ccc(F)cc3)C[C@@]21C [Example 25, N-(2,2-dimethylpropyl)-2-{2-[(4αS,5R)-1-(4-fluorophenyl)-5-hydroxy-4α-methyl-1,4,4α,5,6,7-hexahydrocyclopenta[f]indazol-5-yl]ethyl}benzamide]	–
5 to 100	C[C@]12Cc3cnn(-c4ccc(F)cc4)c3C=C1CC[C@@]2(O)CCc1ccccc1NS(C)(=O)=O [Example 115, N-(2-{2-[(4αS,5R)-1-(4-fluorophenyl)-5-hydroxy-4α-methyl-1,4,4α,5,6,7-hexahydrocyclopenta[f]indazol-5-yl]ethyl}phenyl)methanesulfonamide]	–
–	CC(C)NC(=O)Oc1ccccc1CC[C@]1(O)CCC2=Cc3c(cnn3-c3ccc(F)cc3)C[C@@]21C [Example 136, 2-{2-[(4αS,5R)-1-(4-fluorophenyl)-5-hydroxy-4α-methyl-1,4,4α,5,6,7-hexahydrocyclopenta[f]indazol-5-yl]ethyl}phenyl isopropylcarbamate]	5 to 100
5 to 100	C[C@]12Cc3cnn(-c4ccc(F)cc4)c3C=C1CC[C@@]2(O)CCc1cccc(F)c1[C@@H](NS(=O)(=O)CC(F)(F)F)C(F)(F)F [Example 101, 2,2,2-trifluoro-N-[(1R)-2,2,2-trifluoro-1-(2-fluoro-6-{2-[(4αS,5R)-1-(4-fluorophenyl)-5-hydroxy-4α-methyl-1,4,4α,5,6,7-hexahydrocyclopenta[f]indazol-5-yl]ethyl}phenyl)ethyl]ethanesulfonamide]	–
5 to 100	C[C@]12Cc3cnn(-c4ccc(F)cc4)c3C=C1CC[C@@]2(O)CCc1ccccc1CNCC1CC1 [Example 103, (4αS,5R)-5-[2-(2-{[(cyclopropylmethyl}amino]methyl}phenyl)ethyl]-1-(4-fluorophenyl)-4α-methyl-1,4,4α,5,6,7-hexahydrocyclopenta[f]indazol-5-ol]	–
5 to 100	C[C@]12Cc3cnn(-c4ccc(F)cc4)c3C=C1CC[C@@]2(O)CCc1ccccc1NC(=O)C(F)(F)F [Example 127, 2,2,2-trifluoro-N-(2-{2-[(4αS,5R)-1-(4-fluorophenyl)-5-hydroxy-4α-methyl-1,4,4α,5,6,7-hexahydrocyclopenta[f]indazol-5-yl]ethyl}phenyl)acetamide]	–
5 to 100	C[C@]12Cc3cnn(-c4ccc(F)cc4)c3C=C1CC[C@@]2(O)CCc1ccccc1C1(NS(=O)(=O)C2CC2)CC1 [Example 7, N-[1-(2-{2-[(4αS,5R)-1-(4-Fluorophenyl)-5-hydroxy-4α-methyl-1,4,4α,5,6,7-hexahydrocyclopenta[f]indazol-5-yl]ethyl}phenyl)cyclopropyl]cyclopropanesulfonamide]	–
5 to 100	C[C@]12Cc3cnn(-c4ccc(F)cc4)c3C=C1CC[C@@]2(O)CCc1cc(C(F)(F)F)ccc1C#N [Example 161, 2-{2-[(4αS,5R)-1-(4-fluorophenyl)-5-hydroxy-4α-methyl-1,4,4α,5,6,7-hexahydrocyclopenta[f]indazol-5-yl]ethyl}-4-(trifluoromethyl)benzonitrile]	–
5 to 100	Cc1ccc(CC[C@]2(O)CCC3=Cc4c(cnn4-c4ccc(F)cc4)C[C@@]32C)c(C(N)=O)c1 [Example 181, 2-{2-[(4αS,5R)-1-(4-fluorophenyl)-5-hydroxy-4α-methyl-1,4,4α,5,6,7-hexahydrocyclopenta[f]indazol-5-yl]ethyl}-5-methylbenzamide]	–
5 to 100	C[C@]12Cc3cnn(-c4ccc(Cl)cc4)c3C=C1CC[C@@]2(O)CCc1ccccc1C(N)=O [Example 184, 2-{2-[(4αS,5R)-1-(4-chlorophenyl)-5-hydroxy-4α-methyl-1,4,4α,5,6,7-hexahydrocyclopenta[f]indazol-5-yl]ethyl}benzamide]	–
5 to 100	C[C@]12Cc3cnn(-c4ccc(F)cc4)c3C=C1CC[C@@]2(O)CCc1cccc(F)c1CNS(C)(=O)=O [Example 98, N-(2-fluoro-6-{2-[(4αS,5R)-1-(4-fluorophenyl)-5-hydroxy-4α-methyl-1,4,4α,5,6,7-hexahydrocyclopenta[f]indazol-5-yl]ethyl}benzyl)methanesulfonamide]	–
5 to 100	CCNC(=O)Nc1ccc(F)cc1CC[C@]1(O)CCC2=Cc3c(cnn3-c3ccc(F)cc3)C[C@@]21C [Example 131, N-ethyl-N′-(4-fluoro-2-{2-[(4αS,5R)-1-(4-fluorophenyl)-5-hydroxy-4α-methyl-1,4,4α,5,6,7-hexahydrocyclopenta[f]indazol-5-yl]ethyl}phenyl)urea]	–
5 to 100	Cc1ccc(C#N)c(CC[C@]2(O)CCC3=Cc4c(cnn4-c4ccc(F)cc4)C[C@@]32C)c1 [Example 162, 2-{2-[(4αS,5R)-1-(4-fluorophenyl)-5-hydroxy-4α-methyl-1,4,4α,5,6,7-hexahydrocyclopenta[f]indazol-5-yl]ethyl}-4-methylbenzonitrile]	–
5 to 100	CCOC(=O)NCc1ccccc1CC[C@]1(O)CCC2=Cc3c(cnn3-c3ccc(F)cc3)C[C@@]21C [Example 6, Ethyl(2-(2-[(4αS,5R)-1-(4-fluorophenyl)-5-hydroxy-4α-methyl-1,4,4α,5,6,7-hexahydrocyclopenta(f)indazol-5-yl]ethyl)benzyl)carbamate]	–
5 to 100	C[C@]12Cc3cnn(-c4ccc(F)cc4)c3C=C1CC[C@@]2(O)CCc1cc(C(F)(F)F)ccc1C(N)=O [Example 173, 2-{2-[(4α6,5R)-1-(4-fluorophenyl)-5-hydroxy-4α-methyl-1,4,4α,5,6,7-hexahydrocyclopenta[f]indazol-5-yl]ethyl}-4-(trifluoromethyl)benzamide]	–
5 to 100	C[C@]12Cc3cnn(-c4ccc(F)cc4)c3C=C1CC[C@@]2(O)CCc1ccc(-c2ccccc2)cc1C(N)=O [Example 190, 4-{2-[(4αS,5R)-1-(4-fluorophenyl)-5-hydroxy-4α-methyl-1,4,4α,5,6,7-hexahydrocyclopenta[f]indazol-5-yl]ethyl}biphenyl-3-carboxamide]	–
5 to 100	CCNS(=O)(=O)c1ccccc1CC[C@]1(O)CCC2=Cc3c(cnn3-c3ccc(F)cc3)C[C@@]21C [Example 137, N-ethyl-2-{2-[(4αS,5R)-1-(4-fluorophenyl)-5-hydroxy-4α-methyl-1,4,4α,5,6,7-hexahydrocyclopenta[f]indazol-5-yl]ethyl}benzenesulfonamide]	–
5 to 100	CNS(=O)(=O)c1ccccc1CC[C@]1(O)CCC2=Cc3c(cnn3-c3ccc(F)cc3)C[C@@]21C [Example 139, 2-{2-[(4αS,5R)-1-(4-fluorophenyl)-5-hydroxy-4α-methyl-1,4,4α,5,6,7-hexahydrocyclopenta[f]indazol-5-yl]ethyl}-N-methylbenzenesulfonamide]	–
5 to 100	C[C@]12Cc3cnn(-c4ccc(F)cc4)c3C=C1CC[C@@]2(O)CCc1cccc(F)c1CNS(=O)(=O)c1cccc(C#N)c1 [Example 81, 3-cyano-N-(2-fluoro-6-{2-[(4αS,5R)-1-(4-fluorophenyl)-5-hydroxy-4α-methyl-1,4,4α,5,6,7-hexahydrocyclopenta[f]indazol-5-yl]ethyl}benzyl)benzenesulfonamide]	–
5 to 100	C[C@]12Cc3cnn(-c4ccccc4)c3C=C1CC[C@@]2(O)CCc1cccc(F)c1C(N)=O [Example 167, 2-fluoro-6-{2-[(4αS,5R)-5-hydroxy-4α-methyl-1-phenyl-1,4,4α,5,6,7-hexahydrocyclopenta[f]indazol-5-yl]ethyl}benzamide]	–
5 to 100	C[C@]12Cc3cnn(-c4ccc(F)c(F)c4)c3C=C1CC[C@@]2(O)CCc1ccccc1CC(N)=O [Example 195, 2-(2-{2-[(4αS,5R)-1-(3,4-difluorophenyl)-5-hydroxy-4α-methyl-1,4,4α,5,6,7-hexahydrocyclopenta[f]indazol-5-yl]ethyl}phenyl)acetamide]	–
